Results published in article PMC9788395, “Cell-Penetrating Peptide–Peptide Nucleic Acid Conjugates as a Tool for Protein Functional Elucidation in the Native Bacterium” (Molecules, 2022).
Non-standard residues stand in square brackets, D forms with d. Residues, ends and D or L forms follow the SMILES beside them. Dab = NCC[C@H](N)C(=O)O

Tested on: Paenibacillus sp. YYML68
Assay type: cell-based
Settings: not told
Procedure: Figure S5. Evaluation of (DabFF)3K-FAM permeation into Paenibacillus sp. YYML68. (DabFF)3Dab- […]
FAM permeation was performed at 2 µM concentration in PBS at room temperature (23℃) for 1 h.
Untreated […] strain samples were used as a negative control (NC). Green fluorescence images […]
were captured using the blue wide-excitation mirror unit (U-FBWA; Olympus). Cell integrity was […]
confirmed by bright field (BF) images. Images of (DabFF) 3Dab-FAM permeated cells and the negative […]
controls were captured at similar exposure times to allow for comparison. Scale bar is 5 µm.
Enzymes for Biocatalysis: Sources, Biocatalytic Characteristic and Bioprocesses of Marine […]
Enzymes, Trincone, A., Ed. Woodhead Publishing Limited: Cambridge, 2013; pp 4 29-464.
electrospray ionization mass spectrometry for the characterization of kappa - and iota- […]
carrageenans. Application to the hybrid iota -/nu-carrageenans. Analytical chemistry 2005, 77, […]
Cerezo, A. S.; Erra-Balsells, R.; Matulewicz, M. C., Matrix -assisted laser desorption/ionization time-of-flight (MALDI-TOF) mass spectrometry analysis of oligosaccharides and […]
oligosaccharide alditols obtained by hydrolysis of agaroses and carrageenans, two important […]
types of red seaweed polysaccharides. Carbohydrate research 2010, 345, (2), 275-83.
(1 picture or pasted object on this page, not shown here)

NCC[C@H](NC(=O)[C@H](Cc1ccccc1)NC(=O)[C@H](Cc1ccccc1)NC(=O)[C@H](CCN)NC(=O)[C@H](Cc1ccccc1)NC(=O)[C@H](Cc1ccccc1)NC(=O)[C@H](CCN)NC(=O)[C@H](Cc1ccccc1)NC(=O)[C@H](Cc1ccccc1)NC(=O)[C@@H](N)CCN)C(=O)O [(DabFF)3Dab] (H-[Dab]FF[Dab]FF[Dab]FF[Dab]-OH)
Permeation of the membrane of Paenibacillus sp. strain YYML68: could efficiently and easily permeate the membrane
